Results on two molecules are retold here after patent publication US20250052754A1, “COMPOSITIONS AND METHODS FOR DIAGNOSIS, TREATMENT OF AND PREVENTION OF KIDNEY DISEASE” (XORTX THERAPEUTICS, INC., priority 2021, published 2025).

The nature of series [1]: oxypurinol solubility with and without metformin. It is filed as physicochemical. An excerpt:
The term “organic base” as used herein refers to the organic base may be (a) a Class 1 base with a pKa1 between about 7 to 13 including but not limited to L-arginine, D-arginine, choline, L-lysine, D-lysine, and caffeine. In an alternative embodiment, the organic base is a biguanide (U.S. Pat. No. 9,480,663) or biguanidine such as metformin, phenformin, buformin or a salts thereof. It is noted that metformin has multiple beneficial effects in the context of compositions and methods described herein. First, it can act as a solubilizing agent for oxypurinol to increase oral bioavailablity. Secondarily, it can act as an alkalinizing agent. Thirdly, metformin here can act as a uric acid solubilizing agent. […] The gliflozin family of SGLT2 inhibitors are also basic and can serve as an organic base in accord with the teachings herein.

The test system of series [2] is rodent model of polycystic kidney disease—mouse RC/RC. In words: oxonic acid exposure with or without OXY+L in mouse RC/RC, kidney size (FIG. 9). In kind it is in vivo. Conditions: oxonic acid (OXO) exposure alone. An excerpt:
FIG. 9: is a graph showing that in a rodent model of polycystic kidney disease—mouse RC/RC-oxonic acid (OXO) exposure increased kidney size.

Series [3] concerns rat model of polycystic kidney disease (PCK). As to the kind of experiment: uricase inhibition by oxonic acid in rat model of polycystic kidney disease (FIG. 6A). It is filed as in vivo. As for the experimental part:
(§1) FIG. 6: provides data showing that uricase inhibition by oxonic acid (OXO) and commensurate increased uric acid is associated with increased total kidney to body weight ratio (2K/BWT) in a rat model of polycystic kidney disease (PCK) and in a mouse model of polycystic kidney disease (Pkd1RC/RC). Rodent models of polycystic kidney disease were treated with a uricase enzyme inhibitor—oxonic acid (OXO)—to decrease the metabolism of uric acid to allantoin, thereby chronically increasing circulating serum uric acid concentration. […] Increased serum uric acid is associated with structural and functional changes in kidney function. Increased creatinine is associated with decreased filtering capacity of kidneys. disease.

Series [4] concerns rodent model of polycystic kidney disease. As to the kind of experiment: uricase inhibition by oxonic acid, kidney function in rodent model of polycystic kidney disease (FIG. 7). It is filed as in vivo.
The subject of series [5] is mouse model of polycystic kidney disease (Pkd1RC/RC). In words: uricase inhibition by oxonic acid in mouse model of polycystic kidney disease (FIG. 6B). It is filed as in vivo. How it is done: as §1
The mark [6] stands for this setting: 8 weeks of treatment with oxonic acid, compared to untreated animals.
[7] abbreviates: PCK rat, after 70 days exposure to oxonic acid, P<0.05.
Setting [8] is: Pkd1RC/RC mouse, after 70 days exposure to oxonic acid, P<0.05.

One may read the solubility as how much of the substance goes into solution per volume.

In brackets after ≈: the same amount, converted by molar mass.

For the molecule `O=c1[nH]c(=O)c2c[nH]nc2[nH]1` [oxypurinol], the figures for the solubility in series [1] (1:01 to 1:10 ratio of oxypurinol to metformin) and in series [1] (without metformin (starting value)) were ≥ 16800 µg/mL and 200 µg/mL (≈ 1310 µM), respectively.
`O=C(O)c1nc(=O)[nH]c(=O)[nH]1` [oxonic acid]: the kidney size result in series [2] is reported as “increased”. Further, the total kidney volume result in series [3] (setting [6]) and in series [5] (setting [6]) was “increased significantly” in each case. The serum uric acid entry is listed as “increased” in series [3] (PCK rat, after 70 days exposure to oxonic acid) and “increased” in series [5] (Pkd1RC/RC mouse, after 70 days exposure to oxonic acid). Moreover, the cyst size entry in series [3] (setting [7]) and in series [5] (setting [8]) was “increased” each time. The “total kidney to body weight ratio (2K/BWT)” value in series [3] (setting [7]) and in series [5] (setting [8]) was “increase” throughout. In addition, the serum creatinine result is on record as “increased” in series [3] (PCK rat, after 70 days exposure to oxonic acid, P<0.07) and “increased” in series [5] (setting [8]). In addition, the “creatinine in serum (kidney function)” value in series [4] is “increased”.
